pKi: −log10 of the molar value. Each block holds one molecule with its values, some of them ahead of it.
Biological target: T1, chimeric human H3 receptor (Homo sapiens, UniProt Q9Y5N1)
T1 construct: made in house; host or cells: Sf9 insect cells (baculovirus); P2 membrane preparation
Assay: Chimeric human H3 receptor GTP binding assay (agonist-stimulated GTP-gamma35S binding, Example 7)
Format: biochemical
How it was run: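 Sf9 membranes co-expressing chimeric human H3 receptor and heterotrimeric G-protein, 35 μg/tube, in pH 7.4 Tris buffer with 10 μM GDP. Test compounds (10^−10–10^−6 M) competed against 1 μM histamine, […] GTP-gamma35S, 60 min at room temperature. Filter-bound radioactivity counted; IC50 converted to Ki by Cheng-Prusoff. Agonism/inverse agonism tested without histamine (EC50).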

[1] = Table II "Ki", symbol *, assay of Example 7
[2] = Table I, P2 membranes of Sf9 cells, 1 μM histamine as agonist, Ki from IC50 by Cheng-Prusoff
[3] = assay of Example 7, "*" in Ki of Table II
[4] = Table II, "*" = Ki in assay of Example 7 less than 1 micromolar

T1 sequence (Q9Y5N1 with tags, fused parts or gaps): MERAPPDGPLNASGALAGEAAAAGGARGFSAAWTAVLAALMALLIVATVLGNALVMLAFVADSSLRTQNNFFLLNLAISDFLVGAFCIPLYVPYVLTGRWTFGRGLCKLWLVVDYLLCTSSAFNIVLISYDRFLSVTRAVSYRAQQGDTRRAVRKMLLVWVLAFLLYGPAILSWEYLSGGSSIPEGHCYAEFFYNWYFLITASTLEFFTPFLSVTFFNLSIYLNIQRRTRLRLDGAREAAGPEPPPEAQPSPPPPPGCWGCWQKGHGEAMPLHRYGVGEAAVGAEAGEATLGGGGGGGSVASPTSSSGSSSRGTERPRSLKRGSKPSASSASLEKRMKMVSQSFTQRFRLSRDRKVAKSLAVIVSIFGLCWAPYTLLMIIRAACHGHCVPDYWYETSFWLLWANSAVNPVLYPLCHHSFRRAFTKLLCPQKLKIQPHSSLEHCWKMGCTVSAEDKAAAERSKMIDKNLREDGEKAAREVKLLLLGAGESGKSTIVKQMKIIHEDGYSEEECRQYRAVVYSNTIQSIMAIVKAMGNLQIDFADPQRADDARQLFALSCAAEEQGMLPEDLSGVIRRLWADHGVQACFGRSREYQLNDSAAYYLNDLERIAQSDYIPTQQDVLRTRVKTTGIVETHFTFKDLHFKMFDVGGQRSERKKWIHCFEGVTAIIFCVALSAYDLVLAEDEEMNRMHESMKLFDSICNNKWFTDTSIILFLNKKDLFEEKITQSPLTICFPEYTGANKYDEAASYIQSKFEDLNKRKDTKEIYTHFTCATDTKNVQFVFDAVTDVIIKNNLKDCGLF

- pKi [1]: > 6.00
SMILES: O=C(CN1CCc2cc(-c3cnc4ccccc4c3)ccc2C1)N1CCN(C2CCC2)CC1 [Compound 638, 3-{2-[2-(4-cyclobutylpiperazin-1-yl)-2-oxoethyl]-1,2,3,4-tetrahydroisoquinolin-6-yl}quinoline]

- pKi [1]: > 6.00
SMILES: O=C(CN1CCc2cc(-c3nccc(C(F)(F)F)n3)ccc2C1)N1CCN(C2CCC2)CC1 [Compound 636, 2-[2-(4-cyclobutylpiperazin-1-yl)-2-oxoethyl]-6-[4-(trifluoromethyl)pyrimidin-2-yl]-1,2,3,4-tetrahydroisoquinoline]

- pKi [1]: > 6.00
SMILES: CCCOc1ccc(-c2ccc3c(c2)CCN(CC(=O)N2CCN(C4CCC4)CC2)C3)cc1 [Compound 544, 2-[2-(4-cyclobutylpiperazin-1-yl)-2-oxoethyl]-6-(4-propoxyphenyl)-1,2,3,4-tetrahydroisoquinoline]

- pKi [2]: > 6.00
SMILES: CC(C)N1CCN(C(=O)CN2CCc3ccccc3C2Cc2ccccc2)CC1 (stereo not shown) [Compound 55, 1-benzyl-2-[2-(4-isopropylpiperazin-1-yl)-2-oxoethyl]-1,2,3,4-tetrahydroisoquinoline]

- pKi [2]: > 6.00
SMILES: CC(=O)c1ccc2c(c1)CCN(CC(=O)N1CCN(C3CCC3)CC1)C2c1ccccc1Cl (stereo not shown) [Compound 64, 1-{1-(2-chlorophenyl)-2-[2-(4-cyclobutylpiperazin-1-yl)-2-oxoethyl]-1,2,3,4-tetrahydroisoquinolin-6-yl}ethanone]

- pKi [3]: > 6.00
SMILES: O=C(CN1CCc2cc(-c3ccc4c(c3)OCO4)ccc2C1)N1CCN(C2CCCC2)CC1 [Compound 378, 6-(1,3-benzodioxol-5-yl)-2-[2-(4-cyclopentylpiperazin-1-yl)-2-oxoethyl]-1,2,3,4-tetrahydroisoquinoline]

- pKi [1]: > 6.00
SMILES: CCC(CC)CNc1ccc2c(n1)CCN(CC(=O)N1CCN(C3CCC3)CC1)C2 [Compound 660, 6-[2-(4-cyclobutylpiperazin-1-yl)-2-oxoethyl]-N-(2-ethylbutyl)-5,6,7,8-tetrahydro-1,6-naphthyridin-2-amine]

- pKi [4]: > 6.00
SMILES: CC1CCC[C@H]2CN(C(=O)CN3CCc4cc(-c5cncnc5)ccc4C3)CCN12 (stereo in doubt) [Compound 149, 6-methyl-2-[(6-pyrimidin-5-yl-3,4-dihydroisoquinolin-2(1H)-yl)acetyl]octahydro-2H-pyrido[1,2-a]pyrazine]

- pKi [4]: > 6.00
SMILES: O=C(CN1CCc2[nH]c(=O)ccc2C1)N1CCN(C2CCC2)CC1 [Compound 134, 6-[2-(4-cyclobutylpiperazin-1-yl)-2-oxoethyl]-5,6,7,8-tetrahydro-1,6-naphthyridin-2(1H)-one]

- pKi [3]: > 6.00
SMILES: O=C(CN1CCc2nc(-c3ccc(Cl)cc3)sc2C1)N1CCN(C2CCC2)CC1 [Compound 296, 2-(4-chlorophenyl)-5-[2-(4-cyclobutylpiperazin-1-yl)-2-oxoethyl]-4,5,6,7-tetrahydro[1,3]thiazolo [5,4-c]pyridine]

- pKi [2]: > 6.00
SMILES: CC(C)N1CCN(C(=O)CN2CCc3ccccc3C2CC2CCCC2)CC1 (stereo not shown) [Compound 54, 1-(cyclopentylmethyl)-2-[2-(4-isopropylpiperazin-1-yl)-2-oxoethyl]-1,2,3,4-tetrahydroisoquinoline]

- pKi [4]: > 6.00
SMILES: CC1CCCC1N1CCN(C(=O)CN2CCc3cc(-c4cccnn4)ccc3C2)CC1 (stereo not shown) [Compound 191, 2-{2-[4-(2-methylcyclopentyl)piperazin-1-yl]-2-oxoethyl}-6-pyridazin-3-yl-1,2,3,4-tetrahydroisoquinoline]

- pKi [4]: > 6.00
SMILES: O=C(CN1CCc2cc(-n3cccn3)ccc2C1)N1CCN2CCCCC2C1 (stereo not shown) [Compound 153, 2-{[6-(1H-pyrazol-1-yl)-3,4-dihydroisoquinolin-2(1H)-yl]acetyl}octahydro-2H-pyrido[1,2-a]pyrazine]

- pKi [4]: > 6.00
SMILES: O=C(CN1CCc2nc(N3CCCCC3)ccc2C1)N1CCN(C2CCC2)CC1 [Compound 222, 6-[2-(4-cyclobutylpiperazin-1-yl)-2-oxoethyl]-2-piperidin-1-yl-5,6,7,8-tetrahydro-1,6-naphthyridine]

- pKi [4]: > 6.00
SMILES: Cc1ccc(-n2cc3c(n2)CCN(CC(=O)N2CCN(C4CCC4)CC2)C3)nn1 [Compound 200, 5-[2-(4-cyclobutylpiperazin-1-yl)-2-oxoethyl]-2-(6-methylpyridazin-3-yl)-4,5,6,7-tetrahydro-2H-pyrazolo[4,3-c]pyridine]

- pKi [3]: > 6.00
SMILES: COc1cccc(OC)c1-c1nc2c(s1)CN(CC(=O)N1CCN(C3CCC3)CC1)CC2 [Compound 361, 5-[2-(4-cyclobutylpiperazin-1-yl)-2-oxoethyl]-2-(2,6-dimethoxyphenyl)-4,5,6,7-tetrahydro[1,3]thiazolo [5,4-c]pyridine]

- pKi [3]: > 6.00
SMILES: O=C(CN1CCc2nc(-c3ccc(Cl)cc3F)sc2C1)N1CCN(C2CCC2)CC1 [Compound 351, 2-(4-chloro-2-fluorophenyl)-5-[2-(4-cyclobutylpiperazin-1-yl)-2-oxoethyl]-4,5,6,7-tetrahydro[1,3]thiazolo [5,4-c]pyridine]

- pKi [4]: > 6.00
SMILES: CC(=O)Cc1ccc2c(c1)CCN(CC(=O)N1CCN(C3CCC3)CC1)C2 [Compound 249, 1-{2-[2-(4-cyclobutylpiperazin-1-yl)-2-oxoethyl]-1,2,3,4-tetrahydroisoquinolin-6-yl}acetone]

- pKi [1]: > 6.00
SMILES: CN(C)c1cccc(-c2ccc3c(c2)CCN(CC(=O)N2CCN(C4CCC4)CC2)C3)c1 [Compound 536, 3-{2-[2-(4-cyclobutylpiperazin-1-yl)-2-oxoethyl]-1,2,3,4-tetrahydroisoquinolin-6-yl}-N,N-dimethylaniline]

- pKi [1]: > 6.00
SMILES: CN(C)CCc1ccc(-c2ccc3c(c2)CCN(CC(=O)N2CCN(C4CCC4)CC2)C3)cc1 [Compound 645, 2-(4-{2-[2-(4-cyclobutylpiperazin-1-yl)-2-oxoethyl]-1,2,3,4-tetrahydroisoquinolin-6-yl}phenyl)-N,N-dimethylethanamine]

- pKi [4]: > 6.00
SMILES: CC1CCC[C@H]2CN(C(=O)CN3CCc4cc(-n5cccn5)ccc4C3)CCN12 (stereo in doubt) [Compound 152, 6-methyl-2-{[6-(1H-pyrazol-1-yl)-3,4-dihydroisoquinolin-2(1H)-yl]acetyl}octahydro-2H-pyrido[1,2-a]pyrazine]

- pKi [1]: > 6.00
SMILES: Cc1ccc(-c2ccc3c(c2)CCN(CC(=O)N2CCN(C4CCC4)CC2)C3)nc1 [Compound 629, 2-[2-(4-cyclobutylpiperazin-1-yl)-2-oxoethyl]-6-(5-methylpyridin-2-yl)-1,2,3,4-tetrahydroisoquinoline]

- pKi [1]: > 6.00
SMILES: CCN(CC)c1ccc(-c2ccc3c(c2)CCN(CC(=O)N2CCN(C4CCC4)CC2)C3)cc1 [Compound 625, 4-{2-[2-(4-cyclobutylpiperazin-1-yl)-2-oxoethyl]-1,2,3,4-tetrahydroisoquinolin-6-yl}-N,N-diethylaniline]

- pKi [2]: > 6.00
SMILES: COc1ccc2c(c1)CCN(CC(=O)N1CCN(C3CCC3)CC1)C2c1ccccc1Cl (stereo not shown) [Compound 62, 1-(2-chlorophenyl)-2-[2-(4-cyclobutylpiperazin-1-yl)-2-oxoethyl]-6-methoxy-1,2,3,4-tetrahydroisoquinoline]

- pKi [4]: > 6.00
SMILES: CC1CN(C(=O)CN2CCc3nc(-c4ccncc4)sc3C2)CCN1C1CCC1 (stereo not shown) [Compound 114, 5-[2-(4-cyclobutyl-3-methylpiperazin-1-yl)-2-oxoethyl]-2-pyridin-4-yl-4,5,6,7-tetrahydro[1,3]thiazolo [5,4-c]pyridine]

- pKi [3]: > 6.00
SMILES: COc1cc(-c2nc3c(s2)CN(CC(=O)N2CCN(C4CCC4)CC2)CC3)cc(OC)c1OC [Compound 326, 5-[2-(4-cyclobutylpiperazin-1-yl)-2-oxoethyl]-2-(3,4,5-trimethoxyphenyl)-4,5,6,7-tetrahydro[1,3]thiazolo [5,4-c]pyridine]

- pKi [3]: > 6.00
SMILES: COc1ccc(-c2nc3c(s2)CN(CC(=O)N2CCN(C4CCC4)CC2)CC3)cc1 [Compound 327, 5-[2-(4-cyclobutylpiperazin-1-yl)-2-oxoethyl]-2-(4-methoxyphenyl)-4,5,6,7-tetrahydro[1,3]thiazolo [5,4-c]pyridine]

- pKi [2]: > 6.00
SMILES: CC(=O)c1ccc2c(c1)CCN(CC(=O)N1CCN(C3CCC3)CC1)C2 [Compound 61, 1-{2-[2-(4-cyclobutylpiperazin-1-yl)-2-oxoethyl]-1,2,3,4-tetrahydroisoquinolin-6-yl}ethanone]

- pKi [1]: > 6.00
SMILES: N#CCC1CCN(c2ccc3c(n2)CCN(CC(=O)N2CCN(C4CCC4)CC2)C3)CC1 [Compound 675, (1-{6-[2-(4-cyclobutylpiperazin-1-yl)-2-oxoethyl]-5,6,7,8-tetrahydro-1,6-naphthyridin-2-yl}piperidin-4-yl)acetonitrile]

- pKi [3]: > 6.00
SMILES: O=C(CN1CCc2nc(-c3ccc(Cl)c(F)c3)sc2C1)N1CCN(C2CCC2)CC1 [Compound 352, 2-(4-chloro-3-fluorophenyl)-5-[2-(4-cyclobutylpiperazin-1-yl)-2-oxoethyl]-4,5,6,7-tetrahydro[1,3]thiazolo [5,4-c]pyridine]

- pKi [4]: > 6.00
SMILES: CC1CN(C(=O)CN2CCc3nc(Cl)sc3C2)CCN1C1CCC1 (stereo not shown) [Compound 109, 2-chloro-5-[2-(4-cyclobutyl-3-methylpiperazin-1-yl)-2-oxoethyl]-4,5,6,7-tetrahydro[1,3] thiazolo [5,4-c]pyridine]

- pKi [2]: > 6.00
SMILES: CC(C)N1CCN(C(=O)CN2CCc3ccccc3C2c2ccccc2Cl)CC1 (stereo not shown) [Compound 59, 1-(2-chlorophenyl)-2-[2-(4-isopropylpiperazin-1-yl)-2-oxoethyl]-1,2,3,4-tetrahydroisoquinoline]

- pKi [4]: > 6.00
SMILES: O=C(CN1CCc2nc(-c3ccncc3)ncc2C1)N1CCN(C2CCCC2)CC1 [Compound 138, 6-[2-(4-cyclopentylpiperazin-1-yl)-2-oxoethyl]-2-pyridin-4-yl-5,6,7,8-tetrahydropyrido[4,3-d]pyrimidine]

- pKi [2]: > 6.00
SMILES: COc1ncnc2c1CCN(CC(=O)N1CCN(C3CCC3)CC1)CC2 [Compound 78, 7-[2-(4-cyclobutylpiperazin-1-yl)-2-oxoethyl]-4-methoxy-6,7,8,9-tetrahydro-5H-tetrahydro-5H-pyrimido[4,5-d]azepine]
